Results: ChEMBL document CHEMBL5390264, “Exploring Fatty Acid Mimetics as NR4A Ligands” (J Med Chem, 2023)
Calls of active or inactive are those of the source. No cut-off for these calls is given here.

How the values were obtained:
[1] = molecular target: Nuclear receptor subfamily 4immunitygroup A member 1 (Homo sapiens, UniProt P22736); experiment: Agonist activity at human Nur77 LBD transiently transfected in HEK293T cells assessed as maximal activation incubated for 16 hrs by Gal4-hybrid reporter gene based Dual-glo luciferase assay relative to control; type: cell-based; settings: filed as agonist
[2] = molecular target: T1, Nuclear receptor subfamily 4 group A member 2 (Homo sapiens, UniProt P43354); experiment: Agonist activity at human Nurr1 LBD transiently transfected in HEK293T cells incubated for 16 hrs by Gal4-hybrid reporter gene based Dual-glo luciferase assay; type: cell-based; settings: read-out: EC50
[3] = molecular target: Nuclear receptor subfamily 4 group A member 3 (Homo sapiens, UniProt Q92570); experiment: Agonist activity at human NOR-1 LBD transiently transfected in HEK293T cells incubated for 16 hrs by Gal4-hybrid reporter gene based Dual-glo luciferase assay; type: cell-based
[4] = molecular target: T2, Retinoic acid receptor alpha (Homo sapiens) (UniProt P10276); experiment: Agonist activity at RARalpha LBD (unknown origin) transiently transfected in HEK293T cells at 1 uM incubated for 16 hrs by Gal4-hybrid reporter gene based Dual-glo luciferase assay; type: cell-based
T2 sequence (whole entry): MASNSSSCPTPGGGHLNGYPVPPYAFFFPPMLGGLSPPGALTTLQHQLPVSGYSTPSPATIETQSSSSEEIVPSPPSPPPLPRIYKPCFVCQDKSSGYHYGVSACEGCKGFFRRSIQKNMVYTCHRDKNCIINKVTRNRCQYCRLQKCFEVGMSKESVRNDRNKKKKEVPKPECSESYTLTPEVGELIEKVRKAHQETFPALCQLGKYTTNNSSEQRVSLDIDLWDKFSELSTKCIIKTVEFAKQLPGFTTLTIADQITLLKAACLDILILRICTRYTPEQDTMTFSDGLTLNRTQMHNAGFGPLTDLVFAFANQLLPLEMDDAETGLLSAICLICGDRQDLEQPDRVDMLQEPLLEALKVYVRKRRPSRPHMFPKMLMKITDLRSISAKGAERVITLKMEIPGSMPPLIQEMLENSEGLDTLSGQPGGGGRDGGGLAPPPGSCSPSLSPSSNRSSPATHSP

[5] = molecular target: T3, Peroxisome proliferator-activated receptor gamma (Homo sapiens) (UniProt P37231); experiment: Agonist activity at PPARgamma LBD (unknown origin) transiently transfected in HEK293T cells at 1 uM incubated for 16 hrs by Gal4-hybrid reporter gene based Dual-glo luciferase assay; type: cell-based
T3 sequence (whole entry): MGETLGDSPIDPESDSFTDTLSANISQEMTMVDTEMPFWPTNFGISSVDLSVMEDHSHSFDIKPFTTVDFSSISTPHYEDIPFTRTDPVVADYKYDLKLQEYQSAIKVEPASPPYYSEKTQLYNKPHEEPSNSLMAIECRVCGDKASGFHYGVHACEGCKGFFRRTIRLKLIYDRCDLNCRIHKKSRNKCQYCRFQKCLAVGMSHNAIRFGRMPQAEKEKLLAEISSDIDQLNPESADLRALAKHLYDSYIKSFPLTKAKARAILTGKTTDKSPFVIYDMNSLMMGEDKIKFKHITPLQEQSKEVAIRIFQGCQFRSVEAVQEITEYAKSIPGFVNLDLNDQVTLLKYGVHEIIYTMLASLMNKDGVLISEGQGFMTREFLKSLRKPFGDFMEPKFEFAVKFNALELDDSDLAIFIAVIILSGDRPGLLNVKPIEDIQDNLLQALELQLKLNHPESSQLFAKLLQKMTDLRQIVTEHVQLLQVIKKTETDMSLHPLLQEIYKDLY

[6] = molecular target: T4, Peroxisome proliferator-activated receptor delta (Homo sapiens) (UniProt Q03181); experiment: Agonist activity at PPARdelta LBD (unknown origin) transiently transfected in HEK293T cells at 1 uM incubated for 16 hrs by Gal4-hybrid reporter gene based Dual-glo luciferase assay; type: cell-based
T4 sequence (whole entry): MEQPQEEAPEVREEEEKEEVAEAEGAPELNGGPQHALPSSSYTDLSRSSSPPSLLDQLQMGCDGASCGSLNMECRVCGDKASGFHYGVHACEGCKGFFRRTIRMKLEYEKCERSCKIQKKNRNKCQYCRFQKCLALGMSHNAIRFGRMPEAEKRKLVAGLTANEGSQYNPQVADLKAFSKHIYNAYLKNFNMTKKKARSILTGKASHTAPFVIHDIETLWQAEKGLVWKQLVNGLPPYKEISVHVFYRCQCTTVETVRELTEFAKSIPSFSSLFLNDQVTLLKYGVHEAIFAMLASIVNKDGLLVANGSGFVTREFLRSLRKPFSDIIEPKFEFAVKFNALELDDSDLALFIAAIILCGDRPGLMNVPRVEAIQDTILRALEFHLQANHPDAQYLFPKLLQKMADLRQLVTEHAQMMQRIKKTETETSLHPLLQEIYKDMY

[7] = Selectivity ratio for agonist activity at PPARalpha LBD (unknown origin) transiently transfected in HEK293T cells to agonist activity at human Nur77 LBD transiently transfected in HEK293T cells; type: cell-based
[8] = Selectivity ratio for agonist activity at PPARgamma LBD (unknown origin) transiently transfected in HEK293T cells to agonist activity at human Nur77 LBD transiently transfected in HEK293T cells; type: cell-based
[9] = Selectivity ratio for agonist activity at THRalpha LBD (unknown origin) transiently transfected in HEK293T cells to agonist activity at human Nurr1 LBD transiently transfected in HEK293T cells; type: cell-based
[10] = Selectivity ratio for agonist activity at FXR LBD (unknown origin) transiently transfected in HEK293T cells to agonist activity at human Nurr1 LBD transiently transfected in HEK293T cells; type: cell-based
[11] = Selectivity ratio for agonist activity at THRalpha LBD (unknown origin) transiently transfected in HEK293T cells to agonist activity at human NOR-1 LBD transiently transfected in HEK293T cells; type: cell-based
[12] = Selectivity ratio for agonist activity at PPARgamma LBD (unknown origin) transiently transfected in HEK293T cells to agonist activity at human NOR-1 LBD transiently transfected in HEK293T cells; type: cell-based
[13] = molecular target: T1, Nuclear receptor subfamily 4 group A member 2; settings: filed as agonist, dose 100.0 µM

T1 sequence (P43354 whole entry, the tested form may be a part): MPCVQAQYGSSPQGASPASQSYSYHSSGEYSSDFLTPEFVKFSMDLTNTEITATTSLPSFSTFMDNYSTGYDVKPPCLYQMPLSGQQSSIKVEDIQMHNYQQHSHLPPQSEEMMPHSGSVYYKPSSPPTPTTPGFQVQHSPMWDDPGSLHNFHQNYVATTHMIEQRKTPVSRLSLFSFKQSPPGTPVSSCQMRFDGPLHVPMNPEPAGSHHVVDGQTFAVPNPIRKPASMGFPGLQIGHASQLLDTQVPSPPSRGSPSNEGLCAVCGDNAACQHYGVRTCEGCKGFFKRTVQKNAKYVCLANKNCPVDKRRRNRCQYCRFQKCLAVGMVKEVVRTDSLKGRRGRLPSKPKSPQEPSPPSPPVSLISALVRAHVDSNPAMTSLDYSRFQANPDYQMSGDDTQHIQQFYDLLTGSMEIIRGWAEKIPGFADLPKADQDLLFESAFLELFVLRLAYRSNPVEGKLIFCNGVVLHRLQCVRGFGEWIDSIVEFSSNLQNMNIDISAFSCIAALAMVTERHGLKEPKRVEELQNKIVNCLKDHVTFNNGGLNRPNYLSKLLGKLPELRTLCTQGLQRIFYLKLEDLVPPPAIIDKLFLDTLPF
Sequence of Nuclear receptor subfamily 4 group A member 3 (Q92570 whole entry, the tested form may be a part): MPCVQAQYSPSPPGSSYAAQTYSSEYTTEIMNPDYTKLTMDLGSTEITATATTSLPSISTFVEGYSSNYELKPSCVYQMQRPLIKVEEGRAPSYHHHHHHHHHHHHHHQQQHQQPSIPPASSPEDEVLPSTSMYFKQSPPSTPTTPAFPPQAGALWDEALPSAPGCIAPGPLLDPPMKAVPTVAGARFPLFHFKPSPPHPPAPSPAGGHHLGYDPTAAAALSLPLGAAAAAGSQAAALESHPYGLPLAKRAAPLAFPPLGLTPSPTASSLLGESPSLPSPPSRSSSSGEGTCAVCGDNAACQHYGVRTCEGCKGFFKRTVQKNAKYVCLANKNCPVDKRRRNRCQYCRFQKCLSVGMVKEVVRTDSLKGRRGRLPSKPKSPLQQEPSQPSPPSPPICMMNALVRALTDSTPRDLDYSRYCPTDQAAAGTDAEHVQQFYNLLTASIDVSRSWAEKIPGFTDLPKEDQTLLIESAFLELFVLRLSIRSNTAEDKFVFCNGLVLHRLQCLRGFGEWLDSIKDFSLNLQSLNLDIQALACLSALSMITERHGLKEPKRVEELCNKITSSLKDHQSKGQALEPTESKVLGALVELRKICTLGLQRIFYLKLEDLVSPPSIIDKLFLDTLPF
Sequence of Nuclear receptor subfamily 4immunitygroup A member 1 (P22736 whole entry, the tested form may be a part): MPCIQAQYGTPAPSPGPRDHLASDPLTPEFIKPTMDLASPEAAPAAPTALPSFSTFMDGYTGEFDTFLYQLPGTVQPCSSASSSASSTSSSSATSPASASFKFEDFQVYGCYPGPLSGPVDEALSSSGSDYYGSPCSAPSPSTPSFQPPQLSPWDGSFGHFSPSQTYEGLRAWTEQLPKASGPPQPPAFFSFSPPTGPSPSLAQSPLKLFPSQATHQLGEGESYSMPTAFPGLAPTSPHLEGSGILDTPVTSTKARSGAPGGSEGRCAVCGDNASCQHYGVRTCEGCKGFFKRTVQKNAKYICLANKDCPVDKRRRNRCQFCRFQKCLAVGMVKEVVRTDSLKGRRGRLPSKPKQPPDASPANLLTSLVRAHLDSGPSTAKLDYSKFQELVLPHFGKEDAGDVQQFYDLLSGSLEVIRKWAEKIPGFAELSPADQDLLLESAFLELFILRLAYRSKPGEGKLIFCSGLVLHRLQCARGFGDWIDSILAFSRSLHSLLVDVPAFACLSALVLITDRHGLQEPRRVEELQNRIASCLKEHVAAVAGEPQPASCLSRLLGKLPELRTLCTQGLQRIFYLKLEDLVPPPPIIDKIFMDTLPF

Emax [1]: 163%
EC50 [2]: 0.12 µM
EC50 [3]: 0.07 µM
Activity [4]: inactive
Activity [5]: inactive
Activity [6]: inactive
-TdeltaS [13]: -5.2 kcal/mol
SMILES: CC(C)(C)c1ccc(COc2cccc(C(=O)O)c2)cc1
Selectivity ratio [7]: > 30
Selectivity ratio [8]: > 30
Selectivity ratio [9]: > 30
Selectivity ratio [10]: > 30
Selectivity ratio [11]: > 30
Selectivity ratio [12]: > 30
